ChEMBL document CHEMBL1129344, “Chemical synthesis of benzamide adenine dinucleotide: inhibition of inosine monophosphate dehydrogenase (types I and II)” (J Med Chem, 1996)
One block for each molecule: values may come before it.

Experiments:
Homo sapiens [1] = organism: Homo sapiens; experiment: Compound was evaluated for binding affinity by enzymatically to inhibit IMPDH; assay type: functional
Homo sapiens [2] = organism: Homo sapiens; experiment: Compound was evaluated for inhibition of inosine monophosphate dehydrogenase type-I; assay type: functional, organism-based
Homo sapiens [3] = organism: Homo sapiens; experiment: Compound was evaluated for inhibition of inosine monophosphate dehydrogenase type-II; assay type: functional, organism-based
Homo sapiens [4] = organism: Homo sapiens; experiment: Compound was evaluated for inhibitory concentration of inosine monophosphate dehydrogenase; assay type: functional, organism-based
Homo sapiens [5] = organism: Homo sapiens; experiment: Binding affinity towards less potent effect against alcohol dehydrogenase (ADH); assay type: functional
Homo sapiens [6] = organism: Homo sapiens; experiment: Compound was evaluated for inhibitory concentration potent against IMPDH type-I; assay type: functional, organism-based
Homo sapiens [7] = organism: Homo sapiens; experiment: Compound was evaluated for inhibitory concentration potent against IMPDH type-II; assay type: functional, organism-based

Ki (Homo sapiens [1]): 118 nM
IC50 (Homo sapiens [2]): 780 nM
IC50 (Homo sapiens [3]): 880 nM
Structure (SMILES): NC(=O)c1cccc([C@@H]2O[C@H](CO)[C@@H](O)[C@H]2O)c1

IC50 (Homo sapiens [4]): 7000 nM
Structure (SMILES): NC(=O)c1cncc([C@@H]2O[C@H](CO)[C@@H](O)[C@H]2O)c1

Ki (Homo sapiens [5]): 20 nM
IC50 (Homo sapiens [4]): 26000 nM
Structure (SMILES): NC(=O)c1cccc([C@@H]2O[C@H](CO)[C@@H](O)[C@H]2O)n1

IC50 (Homo sapiens [6]): 94 nM
IC50 (Homo sapiens [7]): 101 nM
Structure (SMILES): NC(=O)c1csc([C@@H]2O[C@H](CO)[C@@H](O)[C@H]2O)n1 [TIAZOFURIN]
